US20150072995A1, “TREATMENT OF MALE SEXUAL DYSFUNCTION” (Ixchelsis Limited, priority 2002, published 2015)
Where two headings read alike, the source gives them in different places.

Tests used:
[1] = tested on: rats, rabbits and monkeys; conditions: cited from earlier work
rats = conditions: cited from earlier work
male animals = conditions: cited from earlier work
rat [2] = conditions: cited from earlier work
[3] = tested on: sexually-experienced rats; experiment: Male sexual behaviour model (copulatory behaviour with receptive female); format: in vivo, rat
Description: For all the sexual behaviour tests, the male rats were placed in an observation arena (50-60 cm diameter), starting 5 hours into the dark cycle and observed under red illumination. Three to four minutes after placing the male in the arena, a receptive female (ovariectomised, oestradiol benzoate/progesterone injection 48 hour before behavioural study) was introduced into the arena and the following parameters noted: • i) ejaculatory latency (EJL; time taken from addition of receptive female into the arena to ejaculation); • ii) copulatory efficiency (CE; ejaculatory latency/the number of intromissions to ejaculation, i.e. the number of seconds between intromissions); • iii) intromission frequency (IF; the number of intromissions to ejaculation); • iv) mount frequency (MF; the number of mounts to ejaculation); • v) post ejaculatory interval (PEI; the time taken from ejaculation to the commencement of copulatory behaviour).

rat [4] = conditions: 100 ng/rat icv; cited from earlier work
experienced male rats = conditions: ICV injection, Argiolas et al 1988; cited from earlier work
human volunteers = conditions: cited from earlier work
[5] = Free plasma concentration in rats; format: in vivo, rat; conditions: for concentration at 30 minutes: rat, plasma, preliminary pharmacokinetic studies
CNS penetration = conditions: in vivo
anaesthetised rats [6] = experiment: Penile erection and p-chloroamphetamine (PCA)-induced ejaculation test in anaesthetised rats; format: in vivo, rat
[7] = molecular target: T1, Human cloned vasopressin V1a receptor in CHO cells (Homo sapiens, UniProt P37288); experiment: Vasopressin V1a receptor binding assay (3H-AVP, filtration); conditions: printed as [6.3 nM OT: 148 nM V1a]; read-out: V1a (vasopressin V1a receptor affinity)
T1 construct: expressed in transfected cells; host or cells: CHO cells (membrane preparation)
Description: B. Vasopressin VIA Receptor Binding Assay
iii) Membrane Preparation • Frozen cell pellets are retrieved from the freezer and thawed gently on ice. • 3 ml of membrane prep buffer per ml of original packed cell volume is • added and the suspension homogenised with a polytron for several bursts • of 5 seconds on ice until well dispersed before centrifuging at 1000 rpm for 10 mins • The supernatant is removed and stored on ice. A further 3 ml of membrane prep buffer per ml of original packed cell volume is added to the pellet, homogenised on ice and then centrifuged at 1000 rpm for 10 mins • The supernatant is removed, added to the previously removed volume of supernatant and then centrifuged at 25,000×g and 4° C. for 30 mins • The 25,000×g pellet is re-suspended by homogenisation in 1 ml of freezing buffer per ml of original packed cell volume and the protein concentration determined […]
Specific binding is calculated as follows: […]

oxytocin receptor = molecular target: T2, oxytocin receptor (Homo sapiens, UniProt P30559); experiment: biochemical
T2 sequence (P30559 1-389): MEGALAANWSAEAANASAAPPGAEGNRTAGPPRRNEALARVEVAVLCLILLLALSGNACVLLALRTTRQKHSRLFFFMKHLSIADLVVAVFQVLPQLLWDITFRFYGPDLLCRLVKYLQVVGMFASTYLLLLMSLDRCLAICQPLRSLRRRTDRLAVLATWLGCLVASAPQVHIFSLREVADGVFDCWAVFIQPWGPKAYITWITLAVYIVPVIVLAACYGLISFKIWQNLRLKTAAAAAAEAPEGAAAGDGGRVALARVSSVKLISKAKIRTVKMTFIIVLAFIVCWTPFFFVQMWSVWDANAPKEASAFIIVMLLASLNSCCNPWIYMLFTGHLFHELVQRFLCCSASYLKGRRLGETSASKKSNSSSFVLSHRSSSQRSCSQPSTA
Description: • a) HTA stock compounds at 4 mM in 100% DMSO • b) Dilute compounds to 200 μM in dH2O. • c) Further dilute compounds to 100 μM in 100 mM Tris-HCl, pH 7.8, 20 mM MgCl2. […]
• Cell pellets are retrieved from the freezer, thawed on ice and resuspended in 3 ml of membrane prep buffer per ml packed cell volume. • The suspension is then homogenised using a mechanical homogeniser for several bursts of 5 secs on ice before centrifuging at 25,000×g for 30 mins. • After resuspending the pellet in 1 ml of freezing buffer per 1 ml of the original packed cell volume the suspension is briefly homogenised to remove small lumps. Protein concentrations are then measured and the membrane suspension is finally frozen in aliquots at a minimum of 5 mg/ml at −80° C.
• Membranes are thawed on ice before diluting to 1 mg/ml in assay buffer. […] Following a 4 hour incubation at room temperature, the plates are counted using the TopCount NXT for 30 s/well.
For the test compounds, the amount of ligand bound to the receptor is expressed as follows: […]

anaesthetised rats [8] = experiment: Splanchnic nerve-stimulated seminal vesicle pressure in anaesthetised rats; format: in vivo, rat
Source text: Seminal vesicle contraction is essential for emission and the seminal fluid delivered into the prostatic urethra is thought to trigger ejaculation. Oxytocin has direct contractile effects on mammalian seminal vesicles and may additionally have a neuromodulator role influencing sympathetic innervation during ejaculation. In this study seminal vesicle contraction was reduced by 41% after a 1 mgkg^−1 bolus injection (see FIG. 2 below).

[9] = infusion into the 3rd ventricle

T1 sequence (P37288 whole entry): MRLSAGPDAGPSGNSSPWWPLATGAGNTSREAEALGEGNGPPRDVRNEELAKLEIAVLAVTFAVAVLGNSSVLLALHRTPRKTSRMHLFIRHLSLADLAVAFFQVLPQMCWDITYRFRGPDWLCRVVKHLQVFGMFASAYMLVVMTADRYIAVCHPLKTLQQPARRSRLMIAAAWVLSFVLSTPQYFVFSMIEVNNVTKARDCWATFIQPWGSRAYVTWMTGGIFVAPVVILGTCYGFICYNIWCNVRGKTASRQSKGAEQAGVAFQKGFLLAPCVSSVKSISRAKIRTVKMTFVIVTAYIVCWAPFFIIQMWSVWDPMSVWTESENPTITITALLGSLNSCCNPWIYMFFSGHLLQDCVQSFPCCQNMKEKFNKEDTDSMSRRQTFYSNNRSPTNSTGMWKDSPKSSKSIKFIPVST

CC[C@H](C)[C@@H]1NC(=O)[C@H](Cc2ccc(O)cc2)NC(=O)[C@@H](N)CSSC[C@@H](C(=O)N2CCC[C@H]2C(=O)N[C@@H](CC(C)C)C(=O)NCC(N)=O)NC(=O)[C@H](CC(N)=O)NC(=O)[C@H](CCC(N)=O)NC1=O [oxytocin]
latency to achieve ejaculation ([1]; central administration): reduce | post-ejaculatory interval ([1]; central administration): shorten | induction of penile erection ([1]; rats, rabbits and monkeys): one of the most potent agents to induce penile erection | ejaculatory latency (rats; [9]): no effect | latencies to the first mount and intromission (rats; [9]): increased | post ejaculatory refractory periods (rats; [9]): lengthened | ejaculatory latency (rats; intravenous infusion): no effect | number of intromissions made before ejaculation (rats; intravenous infusion): dose dependently reduced | ejaculation latency and post-ejaculation interval (male animals; injected either centrally or peripherally): shortens | penile erections (male animals; injected into specific areas of the brain (periventricular nucleus of the hypothalamus)): facilitates

d(CH2)5Tyr(Me)-Orn^8-vasotocin
number of non-contact erections (rat [2]; 100 ng/rat icv): reduces | non-contact penile erections (rat [2]; Melis et al 1999, dose not given): significantly reduces | copulatory behaviour ([3]; 50 ng/rat icv): abolished | effect on ejaculatory latency ([3]; doses up to 25 ng/rat icv, previous studies): no effect | drug-induced erections (rat [4]): abolished | ejaculation (experienced male rats): abolishment | penile erection (experienced male rats): prevent penile erection | sexual performance (experienced male rats): impair

C=CCN1CC[C@]23c4c5ccc(O)c4O[C@H]2C(=O)CC[C@@]3(O)[C@H]1C5 [naloxone]
effect on ejaculation (human volunteers): no effect | serum oxytocin pulse typically observed at ejaculation (human volunteers): eliminated

Cc1ccccc1N1CCN(S(=O)(=O)CC23CCC(C[C@@H]2NC(=O)[C@@H](N)CCS(C)(=O)=O)C3(C)C)CC1 (stereo partly drawn) [L-368,899]
free plasma concentration ([5]; after a 1.0 mgkg^−1 iv injection, based on literature PK and protein plasma binding): approximately 60 nM | free plasma concentration at which ejaculation was delayed 140% ([5]; anaesthetised rats, sc): 5.4 ± 1.5 nM | concentration at 30 minutes ([5]; 30 minutes after 1 mgkg^−1 sc): 4.5 nM | concentration at 30 minutes ([5]; 30 minutes after 10 mgkg^−1 sc): 40 nM | CNS penetration (CNS penetration): very poor | PCA-induced erections resulting in penile cups (anaesthetised rats [6]; 0.1 mg/kg): 98% | PCA-induced erections resulting in penile flares (anaesthetised rats [6]; 0.1 mg/kg): 88% | PCA-induced erections resulting in penile cups (anaesthetised rats [6]; 1.0 mg/kg sc): 95% | PCA-induced erections resulting in penile flares (anaesthetised rats [6]; 1.0 mg/kg sc): 61% | Ejaculation delayed (near maximal effect) (anaesthetised rats [6]; PCA-induced ejaculation, at free plasma concentrations 5.4±1.5 nM): 140% | delay of PCA-induced ejaculation (anaesthetised rats [6]; anaesthetised rats, 0.1-10 mgkg^−1 sc): significantly delayed | Ki [7]: 0.148 µM | effect on copulatory efficiency ([3]; 50 ng/rat icv): no significant effects | effect on copulatory efficiency ([3]; any of the doses tested, 0.05-10 mgkg^−1 sc): no effects | effect on copulatory behaviour ([3]; doses up to 10 mgkg^−1 sc): no effect | Ki (oxytocin receptor): 0.0063 µM | splanchnic nerve-stimulated increases in seminal vesicle pressure (anaesthetised rats [8]; 1-3 mgkg^−1 iv): significantly reduced | reduction of seminal vesicle contraction (anaesthetised rats [8]; after a 1 mgkg^−1 bolus injection): 41%
